The values that follow come from PubChem BioAssay AID1996.

Converted amounts (≈) assume the structure as drawn. A value given as a limit tells only on which side of the number the result lay.

The conditions of the data set: buffer; pH 7.4; 200.0 µM.
For orientation: solubility (kinetic) means the concentration staying in solution when a stock, usually in DMSO, is diluted into the medium. `O=S(=O)(c1ccc(-c2ccon2)s1)N1CCN(c2ccccn2)CC1`: the solubility (kinetic) is 1.1 µg/mL (≈ 2.92 µM).

On to `COc1ccc(CCNC(=O)COC(=O)/C=C/c2ccc(OC)cc2OC)cc1`, for which the kinetic solubility worked out at 5.1 µg/mL (≈ 12.8 µM).

`Cc1csc(SCC(=O)Nc2ccccc2C)n1` returned a solubility (kinetic) greater than 41.8 µg/mL.

`O=C(O)c1ccc[nH]c1=S`: the solubility (kinetic) was greater than 23.3 µg/mL.

The compound `COc1ccc(OCCCn2ccnc2)cc1.Cl` showed a kinetic solubility of 36 µg/mL.

Regarding `O=C(NCC(=O)N1CC=C(c2ccccc2)CC1)c1ccc(OC(F)F)cc1`, the solubility (kinetic) was determined as 8.2 µg/mL (≈ 21.2 µM). This solubility kinetic is about 4.4-fold lower than that of the compound before.

Turning to `Cc1ccc(CNC(=O)CCSCc2ccccc2F)cc1`, the solubility (kinetic) came to 11.8 µg/mL (≈ 37.2 µM). The solubility kinetic values of the last two compounds are within 1.5-fold of each other.

`O=C(Nc1ccc2c(c1)OCO2)N1CCCc2ccccc21` showed a kinetic solubility greater than 44.4 µg/mL.

`C=CCNC(=O)N1CCCC(N2CCN(c3ccccc3OC)CC2)C1` (stereo not drawn): the solubility (kinetic) was greater than 53.8 µg/mL.

As for `Cc1ccc(NC(=O)c2cc(-c3ccccc3)n(CCCN3CCOCC3)c2C)cc1`, the kinetic solubility was 19.9 µg/mL (≈ 47.7 µM).

Compound `COCCNc1oc(Cc2cccc3ccccc23)nc1C#N` had a kinetic solubility of 43.3 µg/mL (≈ 141 µM).

On to `Cn1c(Nc2cccc(Cl)c2)nc2ccccc21`, for which the kinetic solubility turned out to be 5.5 µg/mL (≈ 21.3 µM). Compared with the last compound, the solubility kinetic is about 7.9-fold lower.

As to `COc1ccc(NC(=O)CSCC(=O)N=c2sccn2C)cc1`, the solubility (kinetic) stood at 49.9 µg/mL (≈ 142 µM).

Turning to `Cc1cc(NC(=O)c2ccc(-c3ccccc3F)o2)no1`, the solubility (kinetic) was found to be 0.6 µg/mL (≈ 2.1 µM).

As for `Cc1ccc(NC(=O)CCC(=O)Nc2ccc(C)cc2)cc1`, the solubility (kinetic) was less than 0.3 µg/mL.

`CN(Cc1ccccc1F)C(=O)c1ccc(Oc2ccccc2)cc1`: the kinetic solubility came to 4.2 µg/mL (≈ 12.5 µM).

`COc1ccc(N2CCN(C(=S)NCc3ccc(C)cc3)CC2)cc1` displayed a solubility (kinetic) of less than 0.3 µg/mL.

`Cc1cccc(NC(=O)c2cc3c(s2)-c2c(C)cccc2OC3)n1` registered a kinetic solubility of less than 0.4 µg/mL.

`CC12CCC(C(=O)Nc3cc(F)ccc3F)(CC1=O)C2(C)C` (stereo not drawn) showed a solubility (kinetic) of 32 µg/mL (≈ 104 µM).

`COc1cc2nc(CN3CCN(S(=O)(=O)c4ccccc4C(F)(F)F)CC3)[nH]c(=O)c2cc1OC` gave a solubility (kinetic) of 12.4 µg/mL (≈ 24.2 µM).

The compound `CCc1cccc(NC(=O)CC2Oc3ccccc3NC2=O)c1` (stereo not drawn) had a kinetic solubility of 2.4 µg/mL (≈ 7.73 µM).

In turn, `CNC(=S)N1CCc2sccc2C1C` (stereo not drawn) showed a kinetic solubility greater than 34 µg/mL.

For the compound `CC(=O)N/C(=N/c1nc(C)cc(C)n1)Nc1cccc(C)c1`, the kinetic solubility amounted to 22.2 µg/mL (≈ 74.7 µM).

Take `Cc1cccc(C)c1NC(=S)N(CCN(C)C)Cc1cccs1`: the kinetic solubility is 45.8 µg/mL (≈ 132 µM).

`CN(C)/C(=N\S(=O)(=O)c1ccccc1)c1ccc(F)cc1` yielded a solubility (kinetic) greater than 46 µg/mL.

`COc1cc(NC(=O)C2CCN(c3cnccn3)CC2)cc(OC)c1` displayed a kinetic solubility of 47.1 µg/mL (≈ 138 µM).

Regarding `CN(C)c1ccc(C(=O)OCC(=O)Nc2cccc(S(=O)(=O)N3CCCC3)c2)cc1`, the solubility (kinetic) came to 5.5 µg/mL (≈ 12.7 µM). This solubility kinetic is about 8.6-fold lower than that of the compound before.

`CN1CCN(Cc2cccc3ncccc23)CC1CCO` (stereo not drawn) registered a solubility (kinetic) greater than 42.8 µg/mL.

Take `CC(C)=CC(=O)OCc1cc([N+](=O)[O-])cc2c1OCOC2`: the kinetic solubility was 3.3 µg/mL (≈ 11.3 µM).

For the compound `CCOC(=O)Cc1csc(NC(=O)Nc2cccs2)n1`, the kinetic solubility is 18.4 µg/mL (≈ 59.1 µM).

In the case of `O=C1CC2(CCCC2)C(=O)N1CN1CCN(S(=O)(=O)c2ccc(F)cc2F)CC1`, the solubility (kinetic) was greater than 64.1 µg/mL.

As to `Cc1cccc2cc(CNC3CCCC3)c(Cl)nc12`, the solubility (kinetic) was greater than 41.2 µg/mL.

`O=c1c(/C=N/O)coc2ccc(Cl)cc12` returned a kinetic solubility of 8.2 µg/mL (≈ 36.7 µM).

In turn, `COC(=O)c1sccc1S(=O)(=O)Nc1ccc(Cl)cc1` returned a solubility (kinetic) of 13 µg/mL (≈ 39.2 µM).

Regarding `CC(NC=O)c1nc2ccccc2n1CCc1ccccc1` (stereo not drawn), the solubility (kinetic) came out at 43.9 µg/mL (≈ 150 µM).

`CC(C)(C)c1ccccc1NC(=S)NC1CCCCC1`: the solubility (kinetic) amounted to 2.5 µg/mL (≈ 8.61 µM).

`CC(=O)c1ccc(NC(=O)CN2C(=O)NC3(CCCc4ccccc43)C2=O)cc1` (stereo not drawn) returned a kinetic solubility greater than 58.7 µg/mL.

As for `O=[N+]([O-])c1cccc(NC(=S)N2CCc3ccccc3C2)c1`, the solubility (kinetic) came to 1.3 µg/mL (≈ 4.15 µM).

Regarding `Cc1cc(C(=O)NC2CCC(C)CC2)c(C)o1` (stereo not drawn), the solubility (kinetic) was 12.6 µg/mL (≈ 53.5 µM).

On to `COc1cccc(NC(=O)N2CCCC(C(=O)NC3CCCCC3C)C2)c1` (stereo not drawn), for which the kinetic solubility is 6.4 µg/mL (≈ 17.1 µM).

`O=C(O)c1cccc(Nc2ccc([N+](=O)[O-])c3nonc23)c1` showed a solubility (kinetic) greater than 45 µg/mL.

In turn, `Cc1ccc(OCC(=O)Nc2ccc3oc(=O)ccc3c2)cc1` yielded a solubility (kinetic) of 1.7 µg/mL (≈ 5.5 µM).

For the compound `Cc1ccc2ccc(S(=O)(=O)NCc3ccccn3)cc2c1`, the solubility (kinetic) came out at 7 µg/mL (≈ 22.4 µM).

With `Cc1[nH]c2ccc(OCc3ccccc3)cc2c1CCN.Cl`, the kinetic solubility was greater than 47.5 µg/mL.

In the case of `COc1ccc(C2(C)NC(=O)N(CC3CCCCC3)C2=O)cc1` (stereo not drawn), the kinetic solubility is greater than 47.5 µg/mL.

The compound `Cn1c(N)c(Br)c(-c2ccc(F)cc2)c(C#N)c1=O` gave a kinetic solubility of 8 µg/mL (≈ 24.8 µM).

For `Cc1[nH]nc(SCC(=O)N2CCCCCC2)c1[N+](=O)[O-]`, the kinetic solubility was greater than 44.8 µg/mL.

`O=[N+]([O-])c1cc(CSC2=NCCN2)ccc1O`: the solubility (kinetic) came to 37.1 µg/mL (≈ 146 µM).

`CC1=C([N+](=O)[O-])C(c2ccccc2)NC(=O)N1` (stereo not drawn): the solubility (kinetic) is greater than 35 µg/mL.

For the compound `CCOc1cccc(C(=O)Nc2cc(C)ccc2NC(=O)c2ccco2)c1`, the solubility (kinetic) is 22 µg/mL (≈ 60.4 µM).

On to `Cc1cc2c(c(=O)o1)C(c1ccc([N+](=O)[O-])o1)C(C#N)=C(N)O2` (stereo not drawn), for which the kinetic solubility is greater than 47.3 µg/mL.

The compound `CCC(OC(=O)c1ccco1)C(=O)NC1CCCC1` (stereo not drawn) displayed a solubility (kinetic) greater than 39.8 µg/mL.

Turning to `CC(=O)c1ccc(NC(=O)NC2CCCc3ccccc32)cc1` (stereo not drawn), the solubility (kinetic) was determined as 4.9 µg/mL (≈ 15.9 µM).

On to `Cc1nc(Nc2ccc3c(c2)OCCO3)c2c(C)c(C)sc2n1`, for which the kinetic solubility stood at 3.6 µg/mL (≈ 11 µM).

Consider `CC(=O)NC1C(Oc2ccccc2C)OC(CO)C(O)C1O` (stereo not drawn), for which the solubility (kinetic) was greater than 46.7 µg/mL.

The compound `O=C(O)CN1C(=O)C(=O)N(Cc2ccc(C(F)(F)F)cc2)C1=O` had a solubility (kinetic) greater than 49.5 µg/mL.

`Cc1cc(-n2c(C)cc(C(=O)COc3ccc(Cl)cc3C(N)=O)c2C)no1`: the kinetic solubility was found to be 2.7 µg/mL (≈ 6.96 µM).

In turn, `CCc1noc(C)c1C(=O)OCC(=O)NC(C)c1ccccc1` (stereo not drawn) came in with a kinetic solubility greater than 47.5 µg/mL.

In turn, `O=C(Nc1ccccc1NC(=O)c1ccco1)c1ccccc1` registered a solubility (kinetic) of 17.1 µg/mL (≈ 55.8 µM).

In the case of `CC(C)(C)N(CC#CCC(O)(c1ccccc1)c1ccccc1)CCO`, the solubility (kinetic) is 47.1 µg/mL (≈ 134 µM). This solubility kinetic lies about 2.8-fold higher than the previous one.

Turning to `CCCOC(=O)Nc1cc(OC)ccc1[N+](=O)[O-]`, the solubility (kinetic) was 5.7 µg/mL (≈ 22.4 µM).

In turn, `Brc1cccc(CNCC2CCCO2)c1` (stereo not drawn) came in with a kinetic solubility greater than 40.5 µg/mL.

In the case of `CC(=O)N1CCN(S(=O)(=O)c2ccc3c(c2)CCC(=O)N3)CC1`, the kinetic solubility was greater than 50.6 µg/mL.

On to `COc1ccc(S(=O)(=O)N2CCCCC2)cc1NC(=O)C1CC(=O)N(Cc2ccco2)C1` (stereo not drawn), for which the solubility (kinetic) was greater than 69.2 µg/mL.

With `O=C(OCC(=O)N1CCCC1=O)C1COc2ccccc2O1` (stereo not drawn), the solubility (kinetic) is greater than 45.8 µg/mL.

Consider `O=S(=O)(Nc1ccc(Cl)c(Cl)c1)N1CCOCC1`, for which the kinetic solubility was greater than 46.7 µg/mL.

The compound `Cc1nc([N+](=O)[O-])cn1CC(O)c1ccc(-c2ccccc2)cc1` (stereo not drawn) registered a solubility (kinetic) of 17.1 µg/mL (≈ 52.9 µM).

On to `N#CC(C#N)=Cc1ccc(OCC(=O)N2CCOCC2)cc1`, for which the kinetic solubility was greater than 44.6 µg/mL.

The compound `COc1ccc(CCCc2nc3ccccc3[nH]2)cc1` showed a kinetic solubility of 37.4 µg/mL (≈ 140 µM).

With `CCC(C)Nc1nc2c(c(=O)[nH]c(=O)n2C)n1CCCc1ccccc1` (stereo not drawn), the solubility (kinetic) came to 36.9 µg/mL (≈ 104 µM). This solubility kinetic and that of the compound before are within 1.5-fold of each other.

For the compound `CCNC(=S)Nc1cccc(NC(=O)c2ccccc2O)c1`, the kinetic solubility is 42 µg/mL (≈ 133 µM). The solubility kinetic values of the last two compounds are within 1.5-fold of each other.

On to `O=C(NCCc1c[nH]c2ccccc12)c1ccc2c(c1)OCO2`, for which the kinetic solubility worked out at 44.5 µg/mL (≈ 144 µM).

The compound `Cc1ccc(CNC(=O)N2CCN(S(=O)(=O)c3ccccc3)CC2)cc1` returned a solubility (kinetic) of 8.3 µg/mL (≈ 22.2 µM).
